Data from the supplement of paper PMC10883282.

Columns and labels:
Assay in all cases: standardised AUC of viability dose-response curve (72 h) (fraction (0-1)); higher = less growth inhibition (more resistant)
HS729 = test system: HS729
Outline: (§1)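 Sarcoma cell lines in 384-well plates were treated in triplicate for 72 h with 2.5 µl of compound dilution series (compound-plate series 10 mM to 0.0002 mM, 1:3 steps). ATPLite viability was scaled 1 (full) to 0 (none) and fitted per drug and cell line with a four-parameter log-logistic model. The standardised area under the dose-response curve in log-dose space (modified drexplorer computeAUC) runs from 1 (no response) to 0 (full response).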

SW872 = test system: SW872
Outline: as §1

RD = test system: RD
Outline: as §1

SK-ES-1 = test system: SK-ES-1
Outline: as §1

KHOS-240S = test system: KHOS-240S
Outline: as §1

SW1353 = test system: SW1353
Outline: as §1

A204 = test system: A204
Outline: as §1

KHOS-NP = test system: KHOS-NP
Outline: as §1

SK-LMS-1 = test system: SK-LMS-1
Outline: as §1

SW684 = test system: SW684
Outline: as §1

SW982 = test system: SW982
Outline: as §1

G401 = test system: G401
Outline: as §1

SYO-1 = test system: SYO-1
Outline: as §1

MES-SA = test system: MES-SA
Outline: as §1

VA-ES-BJ = test system: VA-ES-BJ
Outline: as §1

HT1080 = test system: HT1080
Outline: as §1

RD-ES = test system: RD-ES
Outline: as §1

| Compound | standardised AUC (HS729) | standardised AUC (SW872) | standardised AUC (RD) | standardised AUC (SK-ES-1) | standardised AUC (KHOS-240S) | standardised AUC (SW1353) | standardised AUC (A204) | standardised AUC (KHOS-NP) | standardised AUC (SK-LMS-1) | standardised AUC (SW684) | standardised AUC (SW982) | standardised AUC (G401) | standardised AUC (SYO-1) | standardised AUC (MES-SA) | standardised AUC (VA-ES-BJ) | standardised AUC (HT1080) | standardised AUC (RD-ES) |
| --- | --- | --- | --- | --- | --- | --- | --- | --- | --- | --- | --- | --- | --- | --- | --- | --- | --- |
| C#Cc1cccc(Nc2ncnc3cc4c(cc23)OCCOCCOCCO4)c1 [ICOTINIB] | 0.918 | 0.958 | 1 | 0.986 | 0.99 | 0.947 | 0.958 | 0.996 | 0.982 | 0.986 | 0.989 | 0.995 | 0.966 | 0.976 | 0.975 | 0.988 | 0.985 |
| Cn1cnc2c(F)c(Nc3ccc(Br)cc3Cl)c(C(=O)NOCCO)cc21 [SELUMETINIB] | 0.955 | 0.79 | 0.784 | 0.977 | 0.89 | 0.861 | 0.953 | 0.782 | 0.748 | 0.931 | 0.926 | 0.904 | 0.902 | 0.919 | 0.887 | 0.816 | 0.986 |
| CCc1nc(C(N)=O)c(Nc2ccc(N3CCC(N4CCN(C)CC4)CC3)c(OC)c2)nc1NC1CCOCC1 [GILTERITINIB] | 0.659 | 0.735 | 0.748 | 0.663 | 0.814 | 0.857 | 0.817 | 0.898 | 0.823 | 0.791 | 0.674 | 0.811 | 0.665 | 0.785 | 0.793 | 0.899 | 0.655 |
| Cc1[nH]c(/C=C2\C(=O)Nc3ccccc32)c(C)c1CCC(=O)O [ORANTINIB] | 0.934 | 0.975 | 0.994 | 0.977 | 0.993 | 0.964 | 0.963 | 0.99 | 0.976 | 0.966 | 0.966 | 0.977 | 0.976 | 0.958 | 0.967 | 0.971 | 0.985 |
| CNC(=O)c1cccc2cc(Oc3ccnc4cc(OCC5(N)CC5)c(OC)cc34)ccc12 [LUCITANIB] | 0.85 | 0.985 | 0.985 | 0.95 | 0.901 | 0.893 | 0.585 | 0.994 | 0.94 | 0.973 | 0.975 | 0.853 | 0.74 | 0.908 | 0.994 | 1 | 0.964 |
| CO[C@H]1C[C@@H]2CC[C@@H](C)[C@@](O)(O2)C(=O)C(=O)N2CCCC[C@H]2C(=O)O[C@H]([C@H](C)C[C@@H]2CC[C@@H](OC(=O)C(C)(CO)CO)[C@H](OC)C2)CC(=O)[C@H](C)/C=C(\C)[C@@H](O)[C@@H](OC)C(=O)[C@H](C)C[C@H](C)/C=C/C=C/C=C/1C [TEMSIROLIMUS] | 0.887 | 0.741 | 0.731 | 0.647 | 0.854 | 0.883 | 0.592 | 0.934 | 0.64 | 0.933 | 0.743 | 0.763 | 0.81 | 0.511 | 0.588 | 0.94 | 0.754 |
| CNC(=O)c1c(C)oc2cc(Oc3ncnc4cc(OC)c(OC)cc34)ccc12 [FRUQUINTINIB] | 0.856 | 0.925 | 0.993 | 0.968 | 0.937 | 0.932 | 0.787 | 0.975 | 0.96 | 0.979 | 0.986 | 0.934 | 0.79 | 0.97 | 0.964 | 0.968 | 0.984 |
| CN(C)C(=O)c1cc2cnc(Nc3ccc(N4CCNCC4)cn3)nc2n1C1CCCC1 [RIBOCICLIB] | 0.987 | 0.95 | 0.946 | 0.816 | 0.961 | 0.939 | 0.909 | 0.997 | 0.963 | 0.984 | 0.952 | 0.917 | 0.86 | 0.94 | 0.903 | 0.993 | 0.865 |
| C[C@@H]1CN(C(=O)c2ccc(NC(=O)c3cc(O[C@H](C)c4c(Cl)ccc(F)c4Cl)c(N)nn3)cc2)C[C@H](C)N1 [ENSARTINIB] | 0.878 | 0.891 | 0.852 | 0.79 | 0.895 | 0.933 | 0.937 | 0.975 | 0.845 | 0.936 | 0.808 | 0.875 | 0.816 | 0.832 | 0.853 | 0.929 | 0.805 |
| COc1cc(N2CCC(N3CCN(C)CC3)CC2)ccc1Nc1ncc(Cl)c(Nc2ccccc2P(C)(C)=O)n1 [BRIGATINIB] | 0.728 | 0.778 | 0.694 | 0.713 | 0.766 | 0.77 | 0.833 | 0.889 | 0.883 | 0.904 | 0.649 | 0.816 | 0.681 | 0.908 | 0.763 | 0.907 | 0.7 |
| CC(=O)c1c(C)c2cnc(Nc3ccc(N4CCNCC4)cn3)nc2n(C2CCCC2)c1=O [PALBOCICLIB] | 0.949 | 0.887 | 0.946 | 0.721 | 0.863 | 0.922 | 0.806 | 0.96 | 0.967 | 0.928 | 0.789 | 0.903 | 0.772 | 0.808 | 0.78 | 0.96 | 0.792 |
| CCOc1cc2ncc(C#N)c(Nc3ccc(OCc4ccccn4)c(Cl)c3)c2cc1NC(=O)/C=C/CN(C)C [NERATINIB] | 0.872 | 0.817 | 0.775 | 0.693 | 0.873 | 0.753 | 0.755 | 0.889 | 0.847 | 0.901 | 0.717 | 0.851 | 0.818 | 0.745 | 0.83 | 0.877 | 0.822 |
| CCN1CCN(c2ccc(Nc3cc(N(C)C(=O)Nc4c(Cl)c(OC)cc(OC)c4Cl)ncn3)cc2)CC1 [INFIGRATINIB] | 0.737 | 0.95 | 0.986 | 0.838 | 0.896 | 0.855 | 0.701 | 0.983 | 0.965 | 0.996 | 0.933 | 0.719 | 0.736 | 0.774 | 0.943 | 0.995 | 0.926 |
| COC(=O)c1ccc2c(c1)NC(=O)/C2=C(\Nc1ccc(N(C)C(=O)CN2CCN(C)CC2)cc1)c1ccccc1 [NINTEDANIB] | 0.88 | 0.978 | 0.93 | 0.832 | 0.858 | 0.966 | 0.624 | 0.961 | 0.943 | 0.953 | 0.941 | 0.859 | 0.672 | 0.967 | 0.982 | 0.96 | 0.896 |
| COc1cc(Nc2ncc3c(n2)-c2ccc(Cl)cc2C(c2c(F)cccc2OC)=NC3)ccc1C(=O)O [ALISERTIB] | 0.889 | 0.895 | 0.801 | 0.558 | 0.835 | 0.933 | 0.876 | 0.95 | 0.865 | 0.902 | 0.734 | 0.811 | 0.732 | 0.678 | 0.808 | 0.873 | 0.656 |
| Cc1cc2c(F)c(Oc3ncnn4cc(OC[C@@H](C)OC(=O)[C@H](C)N)c(C)c34)ccc2[nH]1 [BRIVANIB ALANINATE] | 0.977 | 1 | 0.987 | 0.986 | 0.974 | 0.995 | 0.967 | 0.966 | 0.941 | 0.989 | 1 | 0.991 | 0.943 | 0.964 | 0.994 | 0.979 | 0.996 |
| O=S(=O)(c1cccc2c(O)nccc12)N1CCCNCC1 [HYDROXYFASUDIL] | 0.917 | 0.961 | 1 | 0.976 | 0.975 | 0.965 | 0.98 | 0.981 | 0.979 | 0.95 | 0.992 | 0.99 | 0.958 | 0.967 | 0.968 | 0.999 | 1 |
| Cc1c2oc3c(C)ccc(C(=O)N[C@@H]4C(=O)N[C@H](C(C)C)C(=O)N5CCC[C@H]5C(=O)N(C)CC(=O)N(C)[C@@H](C(C)C)C(=O)O[C@@H]4C)c3nc-2c(C(=O)N[C@@H]2C(=O)N[C@H](C(C)C)C(=O)N3CCC[C@H]3C(=O)N(C)CC(=O)N(C)[C@@H](C(C)C)C(=O)O[C@@H]2C)c(N)c1=O [DACTINOMYCIN] | 0.504 | 0.56 | 0.432 | 0.272 | 0.408 | 0.492 | 0.365 | 0.451 | 0.566 | 0.778 | 0.396 | 0.348 | 0.444 | 0.258 | 0.453 | 0.464 | 0.418 |
| C=CC(=O)N1CCC(CNc2ncnc(N)c2-c2ccc(Oc3ccccc3)cc2)CC1 [EVOBRUTINIB] | 0.929 | 0.987 | 0.996 | 0.945 | 0.981 | 0.947 | 0.943 | 0.995 | 0.981 | 0.998 | 0.994 | 0.979 | 0.975 | 0.98 | 0.992 | 0.984 | 0.989 |
| O=C(c1ccc(F)c(F)c1Nc1ccc(I)cc1F)N1CC(O)([C@@H]2CCCCN2)C1 [COBIMETINIB] | 0.899 | 0.633 | 0.653 | 0.931 | 0.786 | 0.844 | 0.801 | 0.657 | 0.628 | 0.748 | 0.867 | 0.732 | 0.878 | 0.909 | 0.756 | 0.661 | 0.953 |
| Cc1cc(F)c(C(=O)Nc2cccc(-c3nncn3C(C)C)n2)cc1-n1cnc(C2CC2)c1 [SELONSERTIB] | 0.992 | 1 | 0.995 | 0.953 | 0.977 | 0.999 | 0.94 | 0.962 | 0.988 | 0.981 | 1 | 0.969 | 0.957 | 0.959 | 0.976 | 1 | 0.985 |
| COc1cc2ncnc(Nc3ccc(F)c(Cl)c3)c2cc1OCCCN1CCOCC1 [GEFITINIB] | 0.963 | 0.959 | 0.973 | 0.904 | 0.962 | 0.955 | 0.948 | 0.994 | 0.942 | 0.988 | 0.927 | 0.963 | 0.945 | 0.948 | 0.989 | 0.983 | 0.961 |
| O=C1CCc2c(Oc3ccc4c(c3)[C@@H]3[C@H](O4)[C@H]3c3nc4cc(C(F)(F)F)ccc4[nH]3)ccnc2N1 [LIFIRAFENIB] | 0.95 | 0.87 | 0.924 | 0.955 | 0.938 | 0.96 | 0.805 | 0.882 | 0.904 | 0.999 | 0.931 | 0.946 | 0.88 | 0.956 | 0.987 | 0.963 | 0.988 |
